From ChEMBL document CHEMBL2074539, “ATP-dependent transport of bilirubin glucuronides by the multidrug resistance protein MRP1 and its hepatocyte canalicular isoform MRP2” (Biochem J, 1997)

Tests used:
[1] = target: ATP-binding cassette sub-family C member 2 (Homo sapiens, UniProt Q92887); test: TP_TRANSPORTER: inhibition of LTC4 uptake (LTC4: 0.05 uM) in HepG2 cells; assay type: functional, cell-based
[2] = target: T1, ATP-binding cassette sub-family C member 2 (Rattus norvegicus, UniProt Q63120); test: TP_TRANSPORTER: uptake in bile canalicular membranes from Wistar/TR- rat; assay type: functional, cell membranes, Bile canalicular membrane
[3] = target: T1, ATP-binding cassette sub-family C member 2; test: TP_TRANSPORTER: inhibition of LTC4 uptake (LTC4: 0.05 uM) in bile canalicular membranes from Wistar rat; assay type: functional, cell membranes, Bile canalicular membrane
[4] = target: T2, Multidrug resistance-associated protein 1 (Homo sapiens, UniProt P33527); test: TP_TRANSPORTER: uptake in membrane vesicle from MRP1-expressing HeLa cells; assay type: functional, cell membranes
[5] = target: T2, Multidrug resistance-associated protein 1; test: TP_TRANSPORTER: inhibition of LTC4 uptake (LTC4: 0.05 uM) in membrane vesicle from MRP1-expressing HeLa cells; assay type: functional, cell membranes

T2 sequence (P33527 whole entry): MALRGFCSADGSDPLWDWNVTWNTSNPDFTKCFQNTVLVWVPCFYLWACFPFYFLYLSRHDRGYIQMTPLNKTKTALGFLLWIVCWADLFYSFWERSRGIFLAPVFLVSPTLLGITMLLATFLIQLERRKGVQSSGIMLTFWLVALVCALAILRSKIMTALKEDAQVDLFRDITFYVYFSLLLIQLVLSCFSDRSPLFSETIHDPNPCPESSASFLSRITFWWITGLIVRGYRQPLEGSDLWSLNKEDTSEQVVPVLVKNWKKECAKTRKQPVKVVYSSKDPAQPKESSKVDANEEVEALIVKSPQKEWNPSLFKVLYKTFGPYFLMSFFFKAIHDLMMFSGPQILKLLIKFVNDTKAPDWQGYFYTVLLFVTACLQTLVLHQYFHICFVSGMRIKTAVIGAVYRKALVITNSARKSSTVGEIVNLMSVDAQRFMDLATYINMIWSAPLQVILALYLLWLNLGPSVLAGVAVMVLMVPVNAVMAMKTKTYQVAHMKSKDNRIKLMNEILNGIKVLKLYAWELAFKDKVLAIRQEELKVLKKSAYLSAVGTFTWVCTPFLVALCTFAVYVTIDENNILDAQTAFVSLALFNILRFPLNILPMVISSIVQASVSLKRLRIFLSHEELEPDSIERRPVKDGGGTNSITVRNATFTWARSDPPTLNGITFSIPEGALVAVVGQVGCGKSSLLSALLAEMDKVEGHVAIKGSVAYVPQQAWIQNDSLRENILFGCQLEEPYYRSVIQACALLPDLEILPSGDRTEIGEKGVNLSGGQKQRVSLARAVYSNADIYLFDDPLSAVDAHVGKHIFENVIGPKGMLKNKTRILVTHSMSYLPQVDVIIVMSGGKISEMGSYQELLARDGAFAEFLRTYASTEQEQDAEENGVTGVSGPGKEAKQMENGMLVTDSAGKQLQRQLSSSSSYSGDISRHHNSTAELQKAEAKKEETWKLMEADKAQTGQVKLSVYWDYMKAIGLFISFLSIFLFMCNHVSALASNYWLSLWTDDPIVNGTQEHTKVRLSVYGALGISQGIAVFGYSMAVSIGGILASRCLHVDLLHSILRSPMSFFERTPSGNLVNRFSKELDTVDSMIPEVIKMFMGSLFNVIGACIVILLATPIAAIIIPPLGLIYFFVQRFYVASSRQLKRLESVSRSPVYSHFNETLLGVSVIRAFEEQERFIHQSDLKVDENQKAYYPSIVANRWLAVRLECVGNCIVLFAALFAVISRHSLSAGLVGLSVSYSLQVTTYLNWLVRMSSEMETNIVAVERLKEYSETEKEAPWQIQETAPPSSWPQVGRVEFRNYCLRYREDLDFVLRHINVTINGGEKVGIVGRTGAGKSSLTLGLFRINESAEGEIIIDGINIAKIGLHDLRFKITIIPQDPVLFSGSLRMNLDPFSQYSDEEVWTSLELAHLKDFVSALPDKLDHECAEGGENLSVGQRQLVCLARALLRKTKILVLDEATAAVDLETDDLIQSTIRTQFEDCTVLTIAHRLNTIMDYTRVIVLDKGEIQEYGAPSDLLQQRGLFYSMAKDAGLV
T1 sequence (Q63120 whole entry): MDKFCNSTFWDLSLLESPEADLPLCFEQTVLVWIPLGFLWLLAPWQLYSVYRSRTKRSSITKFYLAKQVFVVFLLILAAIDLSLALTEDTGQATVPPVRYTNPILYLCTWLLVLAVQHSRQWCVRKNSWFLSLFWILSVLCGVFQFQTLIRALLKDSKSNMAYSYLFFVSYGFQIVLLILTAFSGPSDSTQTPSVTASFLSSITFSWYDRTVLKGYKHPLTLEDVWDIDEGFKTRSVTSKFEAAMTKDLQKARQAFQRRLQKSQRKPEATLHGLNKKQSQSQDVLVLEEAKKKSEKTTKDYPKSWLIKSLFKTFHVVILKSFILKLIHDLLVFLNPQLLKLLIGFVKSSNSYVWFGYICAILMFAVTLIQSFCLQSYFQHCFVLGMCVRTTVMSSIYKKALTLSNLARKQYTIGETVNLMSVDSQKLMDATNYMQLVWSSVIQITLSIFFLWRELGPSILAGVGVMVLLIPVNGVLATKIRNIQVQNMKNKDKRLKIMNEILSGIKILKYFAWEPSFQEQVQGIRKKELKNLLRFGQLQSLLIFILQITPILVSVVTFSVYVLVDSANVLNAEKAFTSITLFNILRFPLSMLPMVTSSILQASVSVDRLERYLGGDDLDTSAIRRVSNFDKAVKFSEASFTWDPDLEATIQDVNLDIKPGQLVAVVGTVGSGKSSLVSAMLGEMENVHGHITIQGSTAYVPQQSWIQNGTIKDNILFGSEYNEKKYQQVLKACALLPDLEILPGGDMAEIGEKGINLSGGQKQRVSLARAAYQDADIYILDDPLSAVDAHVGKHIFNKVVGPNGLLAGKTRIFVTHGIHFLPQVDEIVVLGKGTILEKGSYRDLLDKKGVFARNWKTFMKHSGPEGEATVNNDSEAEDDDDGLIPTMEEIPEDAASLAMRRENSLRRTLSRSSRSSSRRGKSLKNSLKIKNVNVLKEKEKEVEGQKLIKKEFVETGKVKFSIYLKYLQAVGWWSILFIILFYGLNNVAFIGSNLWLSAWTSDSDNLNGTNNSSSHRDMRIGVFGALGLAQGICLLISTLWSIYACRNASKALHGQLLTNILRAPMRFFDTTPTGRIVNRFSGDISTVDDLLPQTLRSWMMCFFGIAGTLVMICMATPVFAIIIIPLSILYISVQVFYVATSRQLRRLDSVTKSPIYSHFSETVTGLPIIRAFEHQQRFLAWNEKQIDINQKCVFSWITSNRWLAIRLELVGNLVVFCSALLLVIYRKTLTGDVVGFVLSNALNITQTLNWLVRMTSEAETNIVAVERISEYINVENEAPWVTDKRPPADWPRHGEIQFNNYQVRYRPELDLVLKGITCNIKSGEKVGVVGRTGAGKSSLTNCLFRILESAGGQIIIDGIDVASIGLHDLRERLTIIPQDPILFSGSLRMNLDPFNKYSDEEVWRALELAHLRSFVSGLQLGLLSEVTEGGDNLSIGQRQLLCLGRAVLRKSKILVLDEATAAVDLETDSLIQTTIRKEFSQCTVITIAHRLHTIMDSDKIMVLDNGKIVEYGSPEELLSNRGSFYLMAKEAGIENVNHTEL
ATP-binding cassette sub-family C member 2 (Homo sapiens, UniProt Q92887), sequence (Q92887 whole entry): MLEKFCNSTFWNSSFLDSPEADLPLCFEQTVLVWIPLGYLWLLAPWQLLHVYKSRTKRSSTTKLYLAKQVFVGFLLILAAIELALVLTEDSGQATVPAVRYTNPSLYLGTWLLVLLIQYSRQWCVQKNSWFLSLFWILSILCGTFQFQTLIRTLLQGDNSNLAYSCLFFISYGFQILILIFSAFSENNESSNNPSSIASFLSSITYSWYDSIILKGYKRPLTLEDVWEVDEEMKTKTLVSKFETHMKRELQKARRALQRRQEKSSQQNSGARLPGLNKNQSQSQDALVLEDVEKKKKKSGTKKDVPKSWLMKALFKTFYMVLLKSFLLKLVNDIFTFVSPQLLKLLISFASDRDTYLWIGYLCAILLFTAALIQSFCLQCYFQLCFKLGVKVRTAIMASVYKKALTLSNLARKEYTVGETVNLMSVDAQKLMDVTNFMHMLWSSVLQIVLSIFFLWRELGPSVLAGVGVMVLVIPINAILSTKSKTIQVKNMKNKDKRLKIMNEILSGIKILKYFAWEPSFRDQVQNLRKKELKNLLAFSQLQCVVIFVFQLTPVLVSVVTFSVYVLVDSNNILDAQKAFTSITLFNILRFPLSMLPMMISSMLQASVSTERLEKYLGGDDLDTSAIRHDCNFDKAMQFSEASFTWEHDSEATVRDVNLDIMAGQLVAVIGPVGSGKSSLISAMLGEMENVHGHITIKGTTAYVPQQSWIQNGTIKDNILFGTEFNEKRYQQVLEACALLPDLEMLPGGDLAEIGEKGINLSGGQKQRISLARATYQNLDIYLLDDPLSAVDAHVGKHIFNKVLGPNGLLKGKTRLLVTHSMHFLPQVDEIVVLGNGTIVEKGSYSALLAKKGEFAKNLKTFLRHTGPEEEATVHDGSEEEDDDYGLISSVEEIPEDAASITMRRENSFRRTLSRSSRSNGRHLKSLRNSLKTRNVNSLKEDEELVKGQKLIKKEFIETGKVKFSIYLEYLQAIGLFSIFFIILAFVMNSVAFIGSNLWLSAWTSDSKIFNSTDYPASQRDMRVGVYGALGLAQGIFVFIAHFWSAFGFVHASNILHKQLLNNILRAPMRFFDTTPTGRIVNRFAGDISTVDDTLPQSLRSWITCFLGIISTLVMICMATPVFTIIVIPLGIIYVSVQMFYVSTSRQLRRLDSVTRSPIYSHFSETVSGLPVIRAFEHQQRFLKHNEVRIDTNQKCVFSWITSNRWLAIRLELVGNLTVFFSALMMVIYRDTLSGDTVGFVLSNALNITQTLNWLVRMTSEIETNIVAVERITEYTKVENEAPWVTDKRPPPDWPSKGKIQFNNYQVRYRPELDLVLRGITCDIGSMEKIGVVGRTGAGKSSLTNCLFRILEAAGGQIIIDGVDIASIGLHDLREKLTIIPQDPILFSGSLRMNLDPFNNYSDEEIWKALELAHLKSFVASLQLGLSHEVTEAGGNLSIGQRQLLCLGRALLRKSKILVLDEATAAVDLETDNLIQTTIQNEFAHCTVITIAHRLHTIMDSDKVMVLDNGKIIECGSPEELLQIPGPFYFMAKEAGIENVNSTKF

Row | SMILES | IC50 [1] | Activity [2] | IC50 [3] | Activity [4] | IC50 [5]
1 | C=CC1=C(C)/C(=C/c2[nH]c(Cc3[nH]c(/C=C4\NC(=O)C(C)=C4C=C)c(C)c3CCC(=O)O[C@@H]3OC(C(=O)O)[C@@H](O)C(O)C3O)c(CCC(=O)O)c2C)NC1=O (stereo not given in full) [BILIRUBIN MONOGLUCURONIDE] | 280 nM | substrate [+] | 120 nM | substrate [+] | 420 nM
2 | C=CC1=C(C)/C(=C/c2[nH]c(Cc3[nH]c(/C=C4\NC(=O)C(C)=C4C=C)c(C)c3CCC(=O)O[C@@H]3O[C@@H](C(=O)O)[C@H](O)[C@@H](O)[C@@H]3O)c(CCC(=O)O[C@@H]3O[C@H](C(=O)O)[C@H](O)[C@H](O)[C@@H]3O)c2C)NC1=O | 400 nM | substrate [+] | 100 nM | substrate [+] | 750 nM
